Experiment [1] has as its target E3 ubiquitin-protein ligase SMURF2 (Homo sapiens, UniProt Q9HAU4). The experiment is described as follows: Inhibition of SMURF2 (unknown origin) in presence of E1/E2/Ub mix measured after 45 mins by europium-labeled streptavidin based TR-FRET assay. (In general: Time-resolved FRET reads energy transfer from a long-lived donor to a nearby acceptor.)
Experiment [2] addresses E3 ubiquitin-protein ligase SMURF1 (Homo sapiens, UniProt Q9HCE7). The experiment is described as follows: Inhibition of SMURF1 (unknown origin) in presence of E1/E2/Ub mix measured after 45 mins by europium-labeled streptavidin based TR-FRET assay.

The values that follow come from ChEMBL document CHEMBL4418281, “Carboxamide inhibitors” (2017).

One may read the IC50 as the point on the concentration scale where inhibition reaches its midpoint.

Sequence of E3 ubiquitin-protein ligase SMURF2 (Q9HAU4 whole entry): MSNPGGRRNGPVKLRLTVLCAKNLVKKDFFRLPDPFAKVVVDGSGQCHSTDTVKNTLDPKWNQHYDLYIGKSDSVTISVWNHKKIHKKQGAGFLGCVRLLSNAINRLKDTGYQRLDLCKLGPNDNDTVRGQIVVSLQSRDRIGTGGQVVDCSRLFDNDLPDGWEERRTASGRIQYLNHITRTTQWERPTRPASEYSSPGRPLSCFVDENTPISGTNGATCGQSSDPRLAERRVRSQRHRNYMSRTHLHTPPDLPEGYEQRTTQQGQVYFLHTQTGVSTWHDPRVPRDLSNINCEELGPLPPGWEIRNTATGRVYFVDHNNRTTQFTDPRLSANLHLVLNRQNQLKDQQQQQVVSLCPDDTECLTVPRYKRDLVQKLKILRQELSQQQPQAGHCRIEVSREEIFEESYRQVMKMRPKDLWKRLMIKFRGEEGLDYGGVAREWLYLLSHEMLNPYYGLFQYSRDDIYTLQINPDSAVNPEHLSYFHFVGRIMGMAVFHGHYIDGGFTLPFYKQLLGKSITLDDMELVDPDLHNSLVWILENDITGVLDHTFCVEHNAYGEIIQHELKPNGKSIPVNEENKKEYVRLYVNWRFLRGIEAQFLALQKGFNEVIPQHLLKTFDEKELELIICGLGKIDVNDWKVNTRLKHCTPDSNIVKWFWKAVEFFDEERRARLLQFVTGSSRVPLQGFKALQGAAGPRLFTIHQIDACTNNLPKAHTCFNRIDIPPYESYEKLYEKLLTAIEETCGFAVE
Sequence of E3 ubiquitin-protein ligase SMURF1 (Q9HCE7 whole entry): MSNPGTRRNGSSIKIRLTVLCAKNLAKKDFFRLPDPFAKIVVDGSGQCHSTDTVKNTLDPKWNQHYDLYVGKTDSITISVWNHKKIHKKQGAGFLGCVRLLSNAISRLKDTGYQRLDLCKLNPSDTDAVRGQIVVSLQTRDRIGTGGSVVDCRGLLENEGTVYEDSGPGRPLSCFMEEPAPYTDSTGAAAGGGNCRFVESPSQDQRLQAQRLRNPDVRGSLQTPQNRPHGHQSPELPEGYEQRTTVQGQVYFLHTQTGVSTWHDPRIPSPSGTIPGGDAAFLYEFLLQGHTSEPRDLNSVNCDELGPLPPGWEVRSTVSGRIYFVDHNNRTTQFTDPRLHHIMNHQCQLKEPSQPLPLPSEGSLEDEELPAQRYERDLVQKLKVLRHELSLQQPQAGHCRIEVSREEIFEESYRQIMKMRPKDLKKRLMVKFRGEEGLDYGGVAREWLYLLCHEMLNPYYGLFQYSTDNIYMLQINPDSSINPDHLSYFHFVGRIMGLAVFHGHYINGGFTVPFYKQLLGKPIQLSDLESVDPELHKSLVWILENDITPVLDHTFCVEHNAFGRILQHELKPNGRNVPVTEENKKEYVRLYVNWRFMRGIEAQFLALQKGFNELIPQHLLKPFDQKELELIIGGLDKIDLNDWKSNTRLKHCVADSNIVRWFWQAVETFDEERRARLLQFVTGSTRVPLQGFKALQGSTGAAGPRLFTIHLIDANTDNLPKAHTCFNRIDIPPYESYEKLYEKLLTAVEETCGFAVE

On to `COc1ccc2c(c1)CCCc1c(C(=O)Nc3c(C)n(C)n(Cc4ccc(F)cc4)c3=O)noc1-2`, for which the 50% inhibitory concentration (IC50) in experiment [1] stood at 20 µM. Same read-out and setting: to `Cc1c(NC(=O)c2noc3c2CCCc2cc(OC(F)(F)F)ccc2-3)c(=O)n(Cc2ccccc2F)n1C` belongs 20 µM. For the compound `Cc1c(NC(=O)c2noc3c2CCCc2cc(CC(C)C)ccc2-3)c(=O)n(-c2ccccc2Cl)n1C`, the figures for the IC50 in experiment [1] and in experiment [2] were 0.74 µM and 0.0225 µM, respectively.

As for `Cc1c(NC(=O)c2noc3c2CCCc2cc(OC(F)(F)F)ccc2-3)c(=O)n(Cc2ccc(F)cc2)n1C`, the IC50 in experiment [1] came out at 20 µM.
